Experimental data: ChEMBL document CHEMBL4190355, “Allosteric Modulators of the M4 Muscarinic Acetylcholine Receptor” (ACS Med Chem Lett, 2017)

Molecular target: T1, Muscarinic acetylcholine receptor M4 (Homo sapiens) (UniProt P08173)
T1 sequence (whole entry): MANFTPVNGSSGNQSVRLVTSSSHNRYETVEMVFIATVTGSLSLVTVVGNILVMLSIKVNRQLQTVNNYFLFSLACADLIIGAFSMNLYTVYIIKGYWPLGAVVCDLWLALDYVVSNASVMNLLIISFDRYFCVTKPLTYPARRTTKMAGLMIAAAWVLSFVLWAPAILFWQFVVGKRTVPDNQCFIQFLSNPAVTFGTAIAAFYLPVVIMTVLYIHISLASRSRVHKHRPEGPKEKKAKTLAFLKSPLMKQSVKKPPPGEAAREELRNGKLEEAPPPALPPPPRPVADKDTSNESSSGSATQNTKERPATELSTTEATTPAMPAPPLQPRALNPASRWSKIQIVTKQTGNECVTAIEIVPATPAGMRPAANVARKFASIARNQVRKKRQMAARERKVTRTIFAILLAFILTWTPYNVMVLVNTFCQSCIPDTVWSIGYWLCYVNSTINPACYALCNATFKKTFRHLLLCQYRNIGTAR
Test: Positive allosteric modulation of human muscarinic acetylcholine receptor M4 expressed in CHOK1 cells assessed as increase in acetylcholine-induced […] preincubated for 4 mins followed by acetylcholine addition measured for 3.5 mins by FLIPR assay
Format: functional, cell-based

| Compound | IP |
| --- | --- |
| Cc1cc2c(nc1N1CCC(OC3CCOC3)CC1)CNC2=O (centres undefined) | 11.3 µM |
| Cc1cc2c(nc1N1CCC(Oc3ccc4c(n3)COC4)CC1)[C@H](CO)N(C)C2=O | 30 µM |
| Cc1cc2c(nc1N1CCC(OC[C@@]3(C)C[C@H]3C#N)CC1)CNC2=O | 30 µM |
| CCN1C(=O)c2c(nc(N3CCC(Oc4ccc5c(c4)COC5)CC3)c(C)c2C)[C@@H]1CO | 240 µM |
| COc1ccc(O[C@@H]2CCN(c3nc4c(cc3C)C(=O)N(C)[C@H]4CO)C[C@H]2F)cn1 | 8.06 µM |
| Cc1cc2c(nc1N1CCC(Oc3cnc4[nH]nc(C)c4c3)CC1)CNC2=O | 6.07 µM |
| CCOc1ccc(OC2CCN(c3nc4c(cc3C)C(=O)N(C)[C@H]4CO)CC2)cn1 | 8.62 µM |
| COCCOC1CCN(c2nc3c(cc2C)C(=O)NC3)CC1 | 11.2 µM |
| COc1ccc(O[C@H]2CCN(c3nc4c(cc3C)C(=O)NC4)C[C@H]2C)cn1 | 30 µM |
